Results taken from patent US8933017B2, “CD44V6 peptides as inhibitors of bacterial infections” (Karlsruher Institut fur Technologie, priority 2009, dated 2015).

What was measured:
c-Met [1] = experiment: InIB-induced c-Met phosphorylation in HeLa and HT29 cells; assay type: cell-based, human; conditions: peptide 100 ng/ml 30 min before InIB 1 nM 5 min
Method: (§1) HeLa cells were induced with InIB (A) at a concentration of 1 nM for 5 min at 37° C. Pretreatment with a control peptide or a CD44v6 14-mer peptide having SEQ ID NO: 2 at a concentration of 100 ng/ml for 30 min was performed when indicated. Phosphorylation of c-Met and of Erk were measured as described in experimental procedures. The same experiments were performed with the HT29 cells (B). (C) HeLa cells were transfected with two different siRNA (v6-1 and v6-2, described in experimental procedures) to downregulate CD44v6 and with a control siRNA. 48 h after transfection, cells were starved for additional 24 h. InIB-induced c-Met and Erk phosphorylation were measured. The expression of CD44v6 was detected by Western Blot analysis. The numbers reflect-fold induction as determined by densitometric scanning (Image J program).
(§2) The human colon adenocarcinoma cell lines HT29 and the human cervix carcinoma cell line HeLa (American tissue culture collection, ATCC; Wesel, Germany. Accession no: CCL-2) were grown in Dulbecco's modified Eagle's medium (DMEM; Invitrogen, Karlsruhe, Germany) supplemented with 10% fetal calf serum (FCS; PAA Cölbe, Germany). The rat pancreatic carcinoma cell line BSp73AS and its transfectant BSp73ASs6 were grown in RMPI (Invitrogen, Karlsruhe, Germany) plus 10% FCS.
(§3) In all experiments cells were induced with 1 nM of InIB where indicated. […]

Erk [2] = experiment: InIB-induced Erk phosphorylation in HeLa and HT29 cells; assay type: cell-based, human; conditions: peptide 100 ng/ml 30 min before InIB 1 nM 5 min
Method: as §1, §2, §3

HT29 cells = experiment: Scattering assay (InIB-induced); assay type: cell-based, human; conditions: InIB 1 nM 48 h, antibody 100 μg/ml or peptide 100 ng/ml
Method: Scattering of HT29 cells was determined after treatment with InIB alone or together with a control peptide or a CD44v6 peptide or antibody as indicated. The magnification used was ×20.
HT29 cells were seeded at a concentration of 3×10^5 cells/well in a 6-well plate. They were then incubated with InIB (1 nM) for 48 h at 37° C. For the blocking experiments, CD44 anti-v6 antibodies (Biwa; 100 μg/ml) or a CD44v6 peptide (100 ng/ml) were added before addition of InIB. Pictures were taken using a phase contrast microscope 48 h after induction.

HeLa cells = experiment: Latex bead invasion assay (InIB-coated beads); assay type: cell-based, human; conditions: HeLa cells preincubated with peptide
Method: Control beads or beads coated with InIB (see experimental procedures) were incubated with HeLa cells. Cells were pretreated with a CD44v6 peptide having SEQ ID NO: 2 or a control peptide for one hour as indicated. Extracellular beads bind to a Cy3-labelled antibody and are stained red in immunofluorescence microscopy. In phase contrast microscopy both extracellular and intracellular beads are detected. The number of internalized beads (black) was counted in approximately a thousand cells and shown as intracellular beads/100 cells in the graph. The results are expressed as means±standard deviation of three independent experiments.
In1B-dependent c-Met and Erk phosphorylation was measured in HeLa cells transiently transfected with a control vector or a vector coding for a truncated version of ezrin deprived of the actin binding domain (ezΔABD or DN Ezrin). In these cells also the uptake of latex beads was determined as described in FIG. 4.
Coating of the beads with InIB was performed as is known in the art. Briefly, 25 μl of latex beads (4×10^8 beads/ml, Dynabeads M-450, Dynal, Invitrogen, Karlsruhe, Germany) were coated with goat anti-mouse IgG and then incubated with 0.5 ml of hybridoma cell supernatant of monoclonal anti-InIB antibody for 2 h at 4° C. […]

c-Met [3] = experiment: InIB-induced c-Met phosphorylation in ASs6 cells; assay type: cell-based, rat; conditions: peptide 100 ng/ml before InIB
Method: (§4) AS cells or ASs6 cells were induced with InIB as indicated (A) and ASs6 cells in addition with a CD44v6 14-mer peptide having SEQ ID NO: 1 or an unrelated (control) peptide (B). Erk phosphorylation (A,B) or c-Met phosphorylation (B) was determined. In (C), HeLa cells were induced either with HGF or InIB for 5 min at 37° C. CD44v6 was immunoprecipitated from the lysates and a Western Blot was performed using CD44v6 and c-Met antibodies as indicated. For control, an IgG antibody was used. The numbers reflect-fold induction as determined by densitometric scanning (Image J program).
as §2
(§5) In all experiments cells were induced with 1 nM of InIB where indicated. Induction was performed for 5 min at 37° C. Blocking experiments were performed by incubating the CD44v6 14-mer peptide having for example SEQ ID NO: 2 or SEQ ID NO: 1 (100 ng/ml) or the control peptide (100 ng/ml) for 30 min at 37° C. prior to induction with InIB. […]

Erk [4] = experiment: InIB-induced Erk phosphorylation in ASs6 cells; assay type: cell-based, rat; conditions: peptide 100 ng/ml before InIB
Method: as §4, §2, §5

KEQWFGNRWHEGYR (listed as Homo sapiens) [human CD44v6 14-mer peptide]
InIB-induced activation of c-Met (c-Met [1]): completely abrogated | downstream signaling monitored by Erk activation (Erk [2]): inhibited | InIB-induced scattering (HT29 cells): blocked | entry of InIB-coated beads (HeLa cells): drastic decrease | entry of InIB-coated beads blocked (HeLa cells): ~100%

CD44v6 peptide having SEQ ID NO:1: CD44v6 14-mer peptide having SEQ ID NO: 1, used on rat ASs6 cells (KEKWFENEWQGKNP; listed as Rattus norvegicus)
InIB-induced c-Met phosphorylation (c-Met [3]): abrogated | InIB-induced Erk phosphorylation (Erk [4]): abrogated
